Results taken from ChEMBL document CHEMBL5360557 (Eur J Med Chem, 2023).

Target: T1, Cholinesterase (Homo sapiens, UniProt P06276)
Test: Inhibition of recombinant human BuChE using butyrylthiocholine iodide as substrate at 10 uM preincubated with enzyme for 5 mins followed by substrate addition and measured after 1 min by Ellman's method relative to control
Details: time 6.0 min

T1 sequence (P06276 whole entry): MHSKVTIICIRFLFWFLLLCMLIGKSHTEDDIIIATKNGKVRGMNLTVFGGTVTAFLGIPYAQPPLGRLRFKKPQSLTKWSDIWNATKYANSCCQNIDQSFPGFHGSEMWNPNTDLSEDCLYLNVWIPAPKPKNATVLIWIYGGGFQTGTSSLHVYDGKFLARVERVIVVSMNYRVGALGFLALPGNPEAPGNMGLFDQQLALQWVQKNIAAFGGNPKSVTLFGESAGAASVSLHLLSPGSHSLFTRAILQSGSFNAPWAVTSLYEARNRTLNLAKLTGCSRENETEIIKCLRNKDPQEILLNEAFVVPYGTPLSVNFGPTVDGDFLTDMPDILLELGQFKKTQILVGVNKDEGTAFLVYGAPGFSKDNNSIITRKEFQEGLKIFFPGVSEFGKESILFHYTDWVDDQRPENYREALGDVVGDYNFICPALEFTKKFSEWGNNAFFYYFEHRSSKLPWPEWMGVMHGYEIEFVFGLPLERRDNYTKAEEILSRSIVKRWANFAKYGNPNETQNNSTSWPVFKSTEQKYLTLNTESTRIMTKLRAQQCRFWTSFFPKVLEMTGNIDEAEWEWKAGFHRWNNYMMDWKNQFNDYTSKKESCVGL

Structure (SMILES)	inhibition
C#CCN(CCc1cccc(OC)c1)Cc1cccc(OC)c1OCc1ccccc1	28%
COc1ccccc1CCNCc1cccc(OC)c1OCc1ccccc1	88%
COc1cccc(CNCC(C)c2ccccc2)c1OCc1ccccc1 (centres undefined)	96%
COc1ccccc1CCN(C)Cc1cccc(OC)c1OCc1ccccc1	85%
C=CCN(CCc1cccc(OC)c1)Cc1cccc(OC)c1OCc1ccccc1	76%
COc1cccc(/C=N/CCc2ccc(O)cc2)c1OCc1ccccc1	48%
CCN(CCc1ccc(OC)cc1)Cc1cccc(OC)c1OCc1ccccc1	77%
C#CCOc1ccc(CCN(CC#C)Cc2cccc(OC)c2OCc2ccccc2)cc1	72%
COc1cccc(CNCCc2ccccc2)c1OCc1ccccc1	93%
CCN(CCc1ccccc1)Cc1cccc(OC)c1OCc1ccccc1	91%
C#CCN(CCCc1ccccc1)Cc1cccc(OC)c1OCc1ccccc1	76%
CCCN(CCCc1cccc(O)c1)Cc1cccc(OC)c1OCc1ccccc1	96%
C=CCN(CCc1ccc(O)cc1)Cc1cccc(OC)c1OCc1ccccc1	96%
CCOc1ccc(CCN(CC)Cc2cccc(OC)c2OCc2ccccc2)cc1	84%
C=CCN(CCc1ccccc1)Cc1cccc(OC)c1OCc1ccccc1	88%
C=CCN(CCc1ccccc1OC)Cc1cccc(OC)c1OCc1ccccc1	90%
CCN(CCCc1ccccc1)Cc1cccc(OC)c1OCc1ccccc1	98%
CCCN(CCc1ccccc1)Cc1cccc(OC)c1OCc1ccccc1	91%
COc1cccc(CN(CCCCc2ccccc2)CCCC(C)C)c1OCc1ccccc1	87%
COc1cccc(CCNCc2cccc(OC)c2OCc2ccccc2)c1	77%
C#CCN(CCc1ccccc1)Cc1cccc(OC)c1OCc1ccccc1	46%
C=CCN(CCc1ccc(OC)cc1)Cc1cccc(OC)c1OCc1ccccc1	72%
CCCN(CCc1ccccc1OC)Cc1cccc(OC)c1OCc1ccccc1	92%

Target: Acetylcholinesterase (Homo sapiens, UniProt P22303)
Sequence (P22303 whole entry): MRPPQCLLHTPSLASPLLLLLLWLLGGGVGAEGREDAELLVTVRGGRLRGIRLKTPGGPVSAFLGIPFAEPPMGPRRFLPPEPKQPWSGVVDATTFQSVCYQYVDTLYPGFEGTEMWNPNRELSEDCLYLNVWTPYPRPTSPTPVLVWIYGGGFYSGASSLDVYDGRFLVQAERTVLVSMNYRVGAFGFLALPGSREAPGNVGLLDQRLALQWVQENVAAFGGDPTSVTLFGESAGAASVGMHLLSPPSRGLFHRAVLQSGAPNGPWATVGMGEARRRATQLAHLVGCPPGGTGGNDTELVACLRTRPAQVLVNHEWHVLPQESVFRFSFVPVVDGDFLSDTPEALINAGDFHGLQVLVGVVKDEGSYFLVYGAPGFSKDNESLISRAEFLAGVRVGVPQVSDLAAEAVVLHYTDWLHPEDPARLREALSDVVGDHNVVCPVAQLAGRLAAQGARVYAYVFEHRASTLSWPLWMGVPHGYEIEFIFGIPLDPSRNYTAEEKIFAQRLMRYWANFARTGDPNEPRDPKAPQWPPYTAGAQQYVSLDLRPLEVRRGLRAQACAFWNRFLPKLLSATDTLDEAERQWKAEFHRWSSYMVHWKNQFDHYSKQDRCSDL
Test: Inhibition of recombinant human AChE using acetylthiocholine iodide as substrate preincubated with enzyme for 5 mins followed by substrate addition and measured after 1 min by Ellman's method
Details: not given

Structure (SMILES)	IC50
C#CCN(CCc1cccc(OC)c1)Cc1cccc(OC)c1OCc1ccccc1	> 10 µM
COc1ccccc1CCNCc1cccc(OC)c1OCc1ccccc1	> 10 µM
COc1cccc(CNCC(C)c2ccccc2)c1OCc1ccccc1 (centres undefined)	> 10 µM
COc1ccccc1CCN(C)Cc1cccc(OC)c1OCc1ccccc1	> 10 µM
C=CCN(CCc1cccc(OC)c1)Cc1cccc(OC)c1OCc1ccccc1	> 10 µM
COc1cccc(/C=N/CCc2ccc(O)cc2)c1OCc1ccccc1	> 10 µM
CCN(CCc1ccc(OC)cc1)Cc1cccc(OC)c1OCc1ccccc1	> 10 µM
C#CCOc1ccc(CCN(CC#C)Cc2cccc(OC)c2OCc2ccccc2)cc1	> 10 µM
COc1cccc(CNCCc2ccccc2)c1OCc1ccccc1	> 10 µM
CCN(CCc1ccccc1)Cc1cccc(OC)c1OCc1ccccc1	> 10 µM
C#CCN(CCCc1ccccc1)Cc1cccc(OC)c1OCc1ccccc1	> 10 µM
CCCN(CCCc1cccc(O)c1)Cc1cccc(OC)c1OCc1ccccc1	> 10 µM
C=CCN(CCc1ccc(O)cc1)Cc1cccc(OC)c1OCc1ccccc1	> 10 µM
CCOc1ccc(CCN(CC)Cc2cccc(OC)c2OCc2ccccc2)cc1	> 10 µM
C=CCN(CCc1ccccc1)Cc1cccc(OC)c1OCc1ccccc1	> 10 µM
C=CCN(CCc1ccccc1OC)Cc1cccc(OC)c1OCc1ccccc1	> 10 µM
CCN(CCCc1ccccc1)Cc1cccc(OC)c1OCc1ccccc1	> 10 µM
CCCN(CCc1ccccc1)Cc1cccc(OC)c1OCc1ccccc1	> 10 µM
COc1cccc(CN(CCCCc2ccccc2)CCCC(C)C)c1OCc1ccccc1	> 10 µM
COc1cccc(CCNCc2cccc(OC)c2OCc2ccccc2)c1	> 10 µM
C#CCN(CCc1ccccc1)Cc1cccc(OC)c1OCc1ccccc1	> 10 µM
C=CCN(CCc1ccc(OC)cc1)Cc1cccc(OC)c1OCc1ccccc1	> 10 µM
CCCN(CCc1ccccc1OC)Cc1cccc(OC)c1OCc1ccccc1	> 10 µM

Target: T1, Cholinesterase
Test: Inhibition of recombinant human BuChE using butyrylthiocholine iodide as substrate preincubated with enzyme for 5 mins followed by substrate addition and measured after 1 min by Ellman's method
Details: not given

Structure (SMILES)	IC50
C#CCN(CCc1cccc(OC)c1)Cc1cccc(OC)c1OCc1ccccc1	> 10 µM
COc1ccccc1CCNCc1cccc(OC)c1OCc1ccccc1	0.8 µM
COc1cccc(CNCC(C)c2ccccc2)c1OCc1ccccc1 (centres undefined)	0.16 µM
COc1ccccc1CCN(C)Cc1cccc(OC)c1OCc1ccccc1	0.8 µM
C=CCN(CCc1cccc(OC)c1)Cc1cccc(OC)c1OCc1ccccc1	1.5 µM
COc1cccc(/C=N/CCc2ccc(O)cc2)c1OCc1ccccc1	8 µM
CCN(CCc1ccc(OC)cc1)Cc1cccc(OC)c1OCc1ccccc1	2.5 µM
C#CCOc1ccc(CCN(CC#C)Cc2cccc(OC)c2OCc2ccccc2)cc1	0.2 µM
COc1cccc(CNCCc2ccccc2)c1OCc1ccccc1	0.4 µM
CCN(CCc1ccccc1)Cc1cccc(OC)c1OCc1ccccc1	0.6 µM
C#CCN(CCCc1ccccc1)Cc1cccc(OC)c1OCc1ccccc1	0.23 µM
CCCN(CCCc1cccc(O)c1)Cc1cccc(OC)c1OCc1ccccc1	0.16 µM
C=CCN(CCc1ccc(O)cc1)Cc1cccc(OC)c1OCc1ccccc1	0.3 µM
CCOc1ccc(CCN(CC)Cc2cccc(OC)c2OCc2ccccc2)cc1	0.9 µM
C=CCN(CCc1ccccc1)Cc1cccc(OC)c1OCc1ccccc1	0.4 µM
C=CCN(CCc1ccccc1OC)Cc1cccc(OC)c1OCc1ccccc1	0.3 µM
CCN(CCCc1ccccc1)Cc1cccc(OC)c1OCc1ccccc1	0.06 µM
CCCN(CCc1ccccc1)Cc1cccc(OC)c1OCc1ccccc1	0.5 µM
COc1cccc(CN(CCCCc2ccccc2)CCCC(C)C)c1OCc1ccccc1	0.29 µM
COc1cccc(CCNCc2cccc(OC)c2OCc2ccccc2)c1	2.5 µM
C#CCN(CCc1ccccc1)Cc1cccc(OC)c1OCc1ccccc1	> 10 µM
C=CCN(CCc1ccc(OC)cc1)Cc1cccc(OC)c1OCc1ccccc1	2 µM
CCCN(CCc1ccccc1OC)Cc1cccc(OC)c1OCc1ccccc1	0.7 µM

Test system: not listed separately
Test: Cytotoxicity against human SH-SY5Y cells assessed as inhibition of cell growth incubated for 24 hrs by MTT assay
Type: toxicity, cell-based
Details: not given

Structure (SMILES)	IC50 at 24 h
COc1ccc2c3c1O[C@H]1C[C@@H](O)C=C[C@@]31CCN(C)C2 [GALANTAMINE]	4700 µM
CCN(CCCc1ccccc1)Cc1cccc(OC)c1OCc1ccccc1	34 µM

Test system: not listed separately
Test: Cytotoxicity against human HepG2 cells assessed as inhibition of cell growth incubated for 24 hrs by MTT assay
Type: toxicity, cell-based
Details: not given

Structure (SMILES)	IC50 at 24 h
COc1ccc2c3c1O[C@H]1C[C@@H](O)C=C[C@@]31CCN(C)C2 [GALANTAMINE]	4200 µM
CCN(CCCc1ccccc1)Cc1cccc(OC)c1OCc1ccccc1	23 µM

Test system: not listed separately
Test: in vitro
Details: PAMPA
Description: Permeability of the compound incubated for 3 to 6 hrs by PAMPA-BBB assay

Structure (SMILES)	Papp
CO/N=C(\C(=O)N[C@@H]1C(=O)N2C(C(=O)O)=C(COC(N)=O)CS[C@H]12)c1ccco1 [CEFUROXIME]	0.6 ×10⁻⁶ cm/s
